Assays:
[1] = test system: Human breast carcinoma MDA-MB 231 s.c. solid tumors; test: Human breast carcinoma MDA-MB 231 s.c. solid tumors in nude mice (Example 28); type: in vivo, balb/c nu/nu mice; conditions: for Tumor weight after treatment, Average (SEM): 30 mg/kg days 1, 2, 9, 10
Protocol: (§1) balb/c mice aged 5 to 6 weeks were purchased from Charles River Canada Inc. The animals were kept 5 per cage with an air filter cover under light (12 light/dark cycle, light on at 6 H00) and temperature (22° C.±1° C.)-controlled environment. All manipulations of animals were performed under a sterilized laminar hood. The animals had ad libitum access to Purina mouse chow (Pro Lab PMH 4018, Trademark of Agway, Syracuse, N.Y.) and water. These animal studies were conducted according to the “Guidelines for Care and Use of Experimental Animals”. Tumor Cell Culture: Human breast cancer cells MDA-MB 231 were cultured in the appropriated culture medium. The cells were harvested in their logarithmic growth phase for the preparation of tumor implantation. Tumor Implantation: Human tumor or myeloma cells (2.5 to 5.0×10^6 cells) were implanted subcutaneously in 0.200 mL of medium containing 30% Matrigel on the two flanks of balb/c nu/nu mice through a 1 to 2 cm long 20-gauge needle. Treatments: 2 to 3 weeks after tumor cell implantation, animals that developed s.c. solid tumors were selected and divided into several homogeneous groups (n=5 animals per group or dose) with respect to tumor size (0.5 to 0.8 cm in diameter). The treatments were performed next day. The animals were dosed with the following dosing solutions. Control: (0.9%, NaCl) Compositions:
(§2) Subcutaneous solid tumor measurements were performed on the day of first injection and at 3- to 4-day intervals thereafter. The two largest perpendicular diameters of each tumor were measured with calipers and tumor sizes were estimated using the formula: TV=L×W/2 where TV: tumor volume; L: length; W: width. The body weights of animals were also noted.
The experiment was performed as described in example 27, using the following compositions for treatment:
non-formulated bendamustine, (30 mg/kg)
Bendamustine (30 mg/kg) in 40% SBECD (formulated BM)
The treatment was performed on days 1, 2, 9, and 10.

[2] = test system: Lewis Lung carcinoma 3LL cells; test: Murine experimental lung metastasis model (Example 26); type: in vivo, C57Bl/6 mice; conditions: 50 mg/kg
Protocol: Female Charles Rivers C57Bl/6 mice, aged 5 to 6 weeks, were purchased from Charles River Canada Inc. The animals were kept 5 per cage with an air filter cover under light (12 light/dark cycle, light on at 6H00) and temperature (22°±1° C.)-controlled environment. All manipulations of animals were performed under a sterilized laminar hood. The animals had ad libitum access to Purina mouse chow (Pro Lab PMH 4018, Trademark of Agway, Syracuse, N.Y.) and water. These animal studies were conducted according to the “Guidelines for Care and Use of Experimental Animals”. Tumor Cell Culture:
Lewis Lung carcinoma 3LL cells were cultured in the appropriated culture medium. The cells were harvested in their logarithmic growth phase for the preparation of tumor implantation.
Lewis Lung carcinoma 3LL cells (2.0 to 5.0×10^5 cells in 200 ul PBS) were implanted intravenously by tail vein to establish experimental lung metastasis tumor models.
The treatments were performed on day after tumor implantation. The animals were dosed with the following dosing solutions.
non-formulated bendamustine (BM), (50 mg/kg)
Bendamustine (50 mg/kg) in 20% SBECD, 1% LMWP
Metastasis formation was evaluated by counting the numbers of metastasis spots on the lung surface. Routine metastasis examination were done for all organs at the end of the study.

[3] = test system: Human breast carcinoma (MDA-MB 231) subcutaneous solid tumours; test: Human breast carcinoma MDA-MB 231 s.c. solid tumours in nude mice (Example 27); type: in vivo, balb/c nu/nu mice; conditions: 35 mg/kg
Protocol: as §1
non-formulated Bendamustine, (35 mg/kg)
Bendamustine (35 mg/kg) in 40% SBECD, 1% protamine sulfate (formulated BM)
as §2

Compound: Cn1c(CCCC(=O)O)nc2cc(N(CCCl)CCCl)ccc21 [BM, 4-[5-[bis(2-chloroethyl)amino]-1-methylbenzimidazol-2-yl]butanoic acid]
- Tumor weight after treatment, Average (SEM) ([1]; day 0): 0.203 (0.028) g
- Tumor weight after treatment, Average (SEM) ([1]; day 2): 0.238 (0.023) g
- Tumor weight after treatment, Average (SEM) ([1]; day 5): 0.267 (0.022) g
- Tumor weight after treatment, Average (SEM) ([1]; day 7): 0.313 (0.028) g
- Tumor weight after treatment, Average (SEM) ([1]; day 9): 0.388 (0.045) g
- Tumor weight after treatment, Average (SEM) ([1]; day 12): 0.497 (0.060) g
- Tumor weight after treatment, Average (SEM) ([1]; day 14): 0.550 (0.075) g
- Tumor weight after treatment, Average (SEM) ([1]; day 16): 0.594 (0.084) g
- Tumor weight after treatment, Average (SEM) ([1]; day 19): 0.684 (0.098) g
- Real Tumor weight on day 19 in autopsy ([1]; 30 mg/kg, Day 1, 2, 9, 10): 0.275 ± 0.052 g
- Tumor weight on day 19 estimated from measurements of the tumor size ([1]; 30 mg/kg, Day 1, 2, 9, 10): 0.684 ± 0.10 g
- Lung metastasis number ([2]; 3LL i.v. implanted, C57Bl/6 mice): 56.1 ± 9.5
- Inhibition on metastasis formation vs control ([2]; 3LL lung metastasis, mice): 14.4%
- Inhibition on metastasis formation vs not formulated BM ([2]; 3LL lung metastasis, mice): 0%
- Tumor weight after treatment, Average (SEM) ([3]; day 0): 0.237 (0.008) g
- Tumor weight after treatment, Average (SEM) ([3]; day 2): 0.250 (0.028) g
- Tumor weight after treatment, Average (SEM) ([3]; day 4): 0.294 (0.027) g
- Tumor weight after treatment, Average (SEM) ([3]; day 7): 0.313 (0.030) g
- Tumor weight after treatment, Average (SEM) ([3]; day 9): 0.349 (0.038) g
- Tumor weight after treatment, Average (SEM) ([3]; day 11): 0.417 (0.046) g
- Inhibition % vs control (on day 14) ([3]; day 14): 70.2%
- Tumor volume on day 14 ([3]; day 14): 0.54 ± 0.06 g
- Tumor weight after treatment, Average (SEM) ([3]; day 14): 0.537 (0.055) g
- Body weight on day 14 ([3]; nude mice with MDA-MB 231 tumours): 18.1 ± 0.39 g

From patent US8703964B2, “Bendamustine cyclopolysaccharide compositions” (Supratek Pharma Inc., priority 2009, dated 2014)
